Like-named read-outs stand apart in the source and are kept apart here.
How the values were obtained:
[1] = test system: [3H]-D-Asp uptake (glutamate transporter activity) in HCT116-PAR cells; experiment: [3H]-D-Asp uptake assay, HCT116-PAR; format: cell-based, human
Procedure: (§1) We therefore next determined glutamate transporter activity (as uptake of the substrate [^3H]-D-Asp following a 6-min incubation in buffer supplemented with a tracer concentration of 100 nM [^3H]-D-Asp). […] To determine which transporter(s) was responsible for the [^3H]-D-Asp uptake, we assessed the effect of DL-TBOA, a nonselective inhibitor of EAATs, and UCPH-101, a specific SLC1A3 inhibitor [16, 28, 29]. […] Basal [^3H]-D-Asp uptake was decreased by about 60 % in SN38-resistant compared to parental HCT116 cells, whereas that in SN38-resistant LoVo cells was nearly tripled compared to parental LoVo cells.
(§2) The [^3H]-D-Asp uptake assay was performed essentially as in [30]. Briefly, cells were split into poly-D-lysine-coated white 96-well plates (PerkinElmer). A similar number of cells were seeded for HCT116 parental, HCT116-SN38 and HCT116-Oxa cell lines (7 × 10^4 cells/well) and LoVo parental, Lovo-SN38 and Lovo-Oxa cell lines (6 × 10^4 cells/well). 16–24 h later, culture medium was aspirated, and cells were washed once with 100 μl assay buffer (Hank’s Buffered Saline Solution supplemented with 20 mM HEPES, 1 mM CaCl2 and 1 mM MgCl2, pH 7.4). 50 μl assay buffer supplemented with 100 nM [^3H]-D-Asp and test compounds as indicated was added, and the plate was incubated at 37 °C for 6 min. Non-specific [^3H]-D-Asp uptake was determined in wells with 3 mM L-glutamate. The assay mixture was quickly removed, and wells were washed with 2 × 100 μl ice-cold assay buffer, followed by 150 μl Microscint™20 scintillation fluid (PerkinElmer). The plate was shaken for 1 h and counted in a Wallac 1450 MicroBeta Trilux scintillation counter (GMI, Ramsey, MN).

[2] = test system: [3H]-D-Asp uptake (glutamate transporter activity) in HCT116-SN38 cells; experiment: [3H]-D-Asp uptake assay, HCT116-SN38; format: cell-based, human
Procedure: as §1, §2

[3] = test system: [3H]-D-Asp uptake (glutamate transporter activity) in HCT116-Oxa cells; experiment: [3H]-D-Asp uptake assay, HCT116-Oxa; format: cell-based, human
Procedure: as §1, §2

[4] = test system: [3H]-D-Asp uptake (glutamate transporter activity) in LoVo-PAR cells; experiment: [3H]-D-Asp uptake assay, LoVo-PAR; format: cell-based, human
Procedure: as §1, §2

[5] = test system: [3H]-D-Asp uptake (glutamate transporter activity) in LoVo-SN38 cells; experiment: [3H]-D-Asp uptake assay, LoVo-SN38; format: cell-based, human
Procedure: as §1, §2

[6] = test system: [3H]-D-Asp uptake (glutamate transporter activity) in LoVo-Oxa cells; experiment: [3H]-D-Asp uptake assay, LoVo-Oxa; format: cell-based, human
Procedure: as §1, §2

[7] = test system: [3H]-D-Asp uptake in HCT116 and LoVo cells (parental and resistant); experiment: [3H]-D-Asp uptake assay, summary over cell lines; format: cell-based, human
Procedure: as §1, §2

SLC1A1 = conditions: at concentration up to > 400 fold higher than SLC1A3 IC50; cited from earlier work
SLC1A3 = conditions: cited from earlier work
[8] = Homo sapiens, read-out: IC50, [3H]-D-Asp uptake
[9] = Homo sapiens, read-out: pIC50 ± S.E.M., [3H]-D-Asp uptake (converted)

Work on N[C@@H](CCC(=O)O)C(=O)O [L-Glu, L-glutamate] yielded an IC50 [1, 8] of 21 µM, an IC50 [1, 9] of 21.4 µM and an IC50 [2, 8] of 21 µM. The IC50 [2, 9] was 21.4 µM, the IC50 [3, 8] was 21 µM and the IC50 [3, 9] was 21.4 µM. The IC50 [4, 8] was 26 µM, the IC50 [4, 9] was 25.7 µM and the IC50 [5, 8] was 28 µM. For the same compound, the IC50 [5, 9] was 28.8 µM, the IC50 [6, 8] was 23 µM and the IC50 [6, 9] was 22.9 µM. For the same compound, the IC50 ([7]; Homo sapiens, read-out: IC50 values, competitive inhibition of [3H]-D-Asp uptake) was 20 to 30 µM.

In the case of COc1ccc(C2C(C#N)=C(N)OC3=C2C(=O)CC(c2cccc4ccccc24)C3)cc1 (stereo not shown) [UCPH], the “pIC50 ± S.E.M., [3H]-D-Asp uptake” value ([1]; HCT116-PAR, 100 nM [3H]-D-Asp, 6 min, 37 °C) is reported as under 4.0, the IC50 ([1]; HCT116-PAR, 100 nM [3H]-D-Asp, 6 min, 37 °C, read-out: IC50, [3H]-D-Asp uptake) is reported as over 100 µM and the “pIC50 ± S.E.M., [3H]-D-Asp uptake” value ([2]; HCT116-SN38, 100 nM [3H]-D-Asp, 6 min, 37 °C) is reported as under 4.0. For the same compound, the IC50 ([2]; HCT116-SN38, 100 nM [3H]-D-Asp, 6 min, 37 °C, read-out: IC50, [3H]-D-Asp uptake) was over 100 µM, the “pIC50 ± S.E.M., [3H]-D-Asp uptake” value ([3]; HCT116-Oxa, 100 nM [3H]-D-Asp, 6 min, 37 °C) was under 4.0 and the IC50 ([3]; HCT116-Oxa, 100 nM [3H]-D-Asp, 6 min, 37 °C, read-out: IC50, [3H]-D-Asp uptake) was over 100 µM. For the same compound, the “pIC50 ± S.E.M., [3H]-D-Asp uptake” value ([4]; LoVo-PAR, 100 nM [3H]-D-Asp, 6 min, 37 °C) was under 4.0, the IC50 ([4]; LoVo-PAR, 100 nM [3H]-D-Asp, 6 min, 37 °C, read-out: IC50, [3H]-D-Asp uptake) was over 100 µM and the “pIC50 ± S.E.M., [3H]-D-Asp uptake” value ([5]; LoVo-SN38, 100 nM [3H]-D-Asp, 6 min, 37 °C) was under 4.0. The IC50 ([5]; LoVo-SN38, 100 nM [3H]-D-Asp, 6 min, 37 °C, read-out: IC50, [3H]-D-Asp uptake) was over 100 µM, the “pIC50 ± S.E.M., [3H]-D-Asp uptake” value ([6]; LoVo-Oxa, 100 nM [3H]-D-Asp, 6 min, 37 °C) was under 4.0 and the IC50 ([6]; LoVo-Oxa, 100 nM [3H]-D-Asp, 6 min, 37 °C, read-out: IC50, [3H]-D-Asp uptake) was over 100 µM. For the same compound, the “effect on basal [3H]-D-Asp uptake” value ([7]; all cell lines, concentrations up to 100 μM) was “essentially unaffected”, the “activity at SLC1A1” value (SLC1A1) was “inactive” and the “IC50 values for SLC1A3” value (SLC1A3) was “high-nanomolar”.

Reference: PMC4445981, “The glutamate transport inhibitor DL-Threo-β-Benzyloxyaspartic acid (DL-TBOA) differentially affects SN38- and oxaliplatin-induced death of drug-resistant colorectal cancer cells” (BMC Cancer, 2015)
